# Earlier results, collected in patent publication US20110092602A1 (priority 2008, published 2011).
# Where two headings read alike, the source gives them in different places.
# Assays:
# [1] = pH 7
# [2] = not given; remark: listed apart in the source
SMILES,n-octanol/water log partition coefficient (logP) [1],solubility (ethanol),solubility (water),potency in producing analgesia relative to tramadol ([2]; animal models),affinity of binding to μ-opioid receptors (μ-opioid receptors),potency in μ-opioid binding relative to tramadol (μ-opioid receptors; animal models),antagonism of analgesia by the opiate antagonist naloxone ([2]; several animals tests)
"COc1cccc([C@]2(O)CCCC[C@H]2CN(C)C)c1.Cl (racemic) [Tramadol hydrochloride, (±)cis-2-[(dimethylamino)methyl]-1-(3-methoxyphenyl)cyclohexanol hydrochloride]",1.35,readily soluble,readily soluble,,,,
CN(C)C[C@H]1CCCC[C@]1(O)c1cccc(O)c1 [Example M1],,,,up to 6 times,higher affinity,200 times,
"COc1cccc(C2(O)CCCCC2CN(C)C)c1 (centres unmarked) [Tramadol, 2-dimethylaminomethyl-1-(3-methoxyphenyl)cyclohexanol]",,,,,low affinity,,only partially antagonized
